Entries after “also recorded” stand apart in the source; their conditions may differ.

The subject of one test is S. aureus 33591 (MRSA). As to the kind of experiment: Kirby-Bauer disc diffusion antimicrobial susceptibility. It counts as cell-based, Staphylococcus aureus. The following applies: 100 mM, carrier water; 18-24 hours for aerobes. On the technique in general: A growth-free zone around the sample is the usual read-out of agar diffusion tests.
In a further test the test system is K. pneumoniae. Described as above. Format: cell-based. To be noted: 100 mM, carrier water; 18-24 hours for aerobes.
Test [1] concerns Staphylococcus epidermidis ATCC 51625 (MRSE). Nature of the test: In vitro antimicrobial test (FIG. 32). It counts as cell-based.
The test system of test [2] is Pseudomonas Aeruginosa ATCC 700888 biofilm. As to the kind of experiment: Drip flow biofilm reactor, PCA coated cloth and sintered mesh, Example 7. It counts as cell-based. An excerpt: The cloth was dried when tested.
Test [3] deals with Propionibacterium acnes (1100; ATCC 6919). Nature of the test: BALB/c mice intradermal infection, topical treatment, Example 9. Format: in vivo. The following applies: for effect on P. acnes CFU burden in mouse skin: 96 hours. The procedure: BALB/c mice were infected with Propionibacterium acnes via intradermal injection and treated topically with varying concentrations of a novel test compound, PCA, at 2, 24, 48 and 72 hours following challenge. Efficacy was evaluated by CFU analysis from skin samples harvested at 96 hours post challenge.
Female BALB/c mice, ordered from Harlan and weighing 17-19 g, were acclimated to housing conditions and handled in accordance with AUP number TP-18-13. The animals were acclimated for 4 days prior to bacterial challenge. Only animals deemed healthy and fully immunocompetent were included in this study. Cages were prepared with 2 mice per cage.
On Day −1, each mouse was anesthetized in an Isoflurane induction chamber and the lesion site was cleared of hair. An area of approximately 2.0 cm×2.0 cm of skin on the dorsal area of each mouse was cleared through use of the depilatory agent Nair®.
Cultures were grown for 96 hrs at 37° C. in an anaerobic atmosphere on TS agar plates supplemented with 5% sheep blood cells. The culture was aseptically swabbed and transferred to tubes of TS broth and allowed to grow for 72 hours. The cultures were diluted to provide challenge inoculum of approximately 6.0-7.0 log 10 CFU per 50 μL in PBS. On Day 0 each mouse was anesthetized using Isoflurane. Each animal on the study was administered 50 μL of the bacterial suspension via intradermal injection in the dorsal area that was previously denuded of hair. The final CFU count from the challenge suspension determined that 6.0 log 10 CFU per mouse were delivered.
The test treatment, PCA, was provided by the study Sponsor and formulated using sterile water. Treatments were administered topically in a dose volume of 0.1 mL. Treatments were given at 2, 24, 48 and 72 hours post challenge at 60 mg/kg (78 mM; Group 3), 30 mg/kg (39 mM; Group 4) or 15 mg/kg (19.5 mM; Group 5).
At 96 hours following challenge, mice were humanely euthanized and skin was aseptically removed from the infection site. Skin samples were placed in homogenation vials with 2.0 mL PBS, weighed and homogenized using a mini-bead beater. Homogenate was serially diluted and plated anaerobically on TSA agar plates for enumeration of colony forming units per gram of skin tissue.

Take `O=C(O)c1ccc(O)c(O)c1` [PCA, Protocatechuic acid]: the “effectiveness against S. aureus 33591 (MRSA)” value in the test with S. aureus 33591 (MRSA) is given as “effective”. Moreover, the “effectiveness against K. pneumoniae” value with K. pneumoniae was “effective”. Besides, the “effectiveness against MRSE ATCC 51625” value in test [1] is listed as “effective”. Moreover, the “effectiveness against Pseudomonas biofilm” value in test [2] (10% concentration of PCA (FIG. 33)) was “not as effective”; in test [2] (20% concentration of PCA in 70% isopropyl alcohol, dried coating (FIG. 34)), “effective; also recorded: very effective”. The “effect on P. acnes CFU burden in mouse skin” value in test [3] (15 mg/kg (19.5 mM) topical) is reported as “no such effect; also recorded: statistically non-different”; in test [3] (30 mg/kg (39 mM) topical), “no such effect; also recorded: statistically non-different”; in test [3] (60 mg/kg (78 mM) topical, P=0.0285 vs untreated), “bacteriostatic effect; also recorded: significant reduction”. The “reduction of CFU burden in skin vs untreated” value in test [3] (60 mg/kg (78 mM) topical at 2, 24, 48 and 72 hours, harvest 96 hours) is “approximately 1 log 10”.
